Values after ≈ are worked out from the molar mass of the structure shown. Where two headings read alike, the source gives them in different places. Where a SMILES comes first, the peptide text is derived from it.
Columns and labels:
[1] = tested on: Staphylococcus aureus clinical isolate – animal, penicillin-resistant (PRSA); type: cell-based; details: clinical isolate – animal, penicillin-resistant (PRSA)
Method in brief: (§1)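 Broth microdilution per CLSI M07-A/M26A; cathelicidin peptides tested at final 64-0.125μg/mL, inoculum 5 x 10^5 CFU/mL, 35°C for 20–24 hours. Bacteria in MHB (±10% lysed horse blood, ±Ca/Mg), yeasts in RPMI-1640 MOPS. MIC = lowest concentration preventing visible growth.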

[2] = tested on: Staphylococcus aureus clinical isolate – animal, methicillin-resistant (MRSA); type: cell-based; details: clinical isolate – animal, methicillin-resistant
Method in brief: as §1

[3] = tested on: Streptococcus agalactiae Clinical isolate - animal; test: microbe, parasite or virus in culture; type: cell-based; details: clinical isolate - animal
Method in brief: as §1

[4] = tested on: Streptococcus pneumoniae ATCC 49619; test: microbe, parasite or virus in culture; type: cell-based; details: ATCC 49619; read-out: MIC S. pneumoniae ATCC
Method in brief: as §1

[5] = tested on: Streptococcus agalactiae ATCC 12386; test: microbe, parasite or virus in culture; type: cell-based; details: ATCC 12386; read-out: MIC S. agalactiae ATCC
Method in brief: as §1

[6] = tested on: Staphylococcus aureus clinical isolate - animal; test: microbe, parasite or virus in culture; type: cell-based
Method in brief: (§2)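 CLSI broth microdilution, MHB ± cations ± 10% lysed horse blood; peptide 64-0.125μg/mL final, duplicates; 5 x 10^5 CFU/mL; 35°C, 20–24 h; MIC = no visible growth.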

[7] = tested on: Escherichia coli clinical isolate - animal; test: microbe, parasite or virus in culture; type: cell-based
Method in brief: as §2

[8] = tested on: Pseudomonas aeruginosa ATCC 27853; test: microbe, parasite or virus in culture; type: cell-based; details: ATCC 27853; read-out: MIC P. aeruginosa ATCC
Method in brief: as §2

[9] = tested on: Pseudomonas aeruginosa clinical isolate - animal; test: microbe, parasite or virus in culture; type: cell-based; details: clinical isolate - animal; read-out: MIC P. aeruginosa
Method in brief: as §2

[10] = tested on: Staphylococcus aureus ATCC 29213; test: microbe, parasite or virus in culture; type: cell-based
Method in brief: as §2

[11] = tested on: Escherichia coli ATCC 25922; test: microbe, parasite or virus in culture; type: cell-based
Method in brief: as §2

S. aureus ATCC 29213 = test: Killing kinetics (time kill assay); type: cell-based, Staphylococcus aureus; details: MHB, 35°C, sampled 1-24 hours, n = 2
Method: The killing kinetics assay was conducted using mid-logarithmic phase cultures of E. coli ATCC 25922 and S. aureus ATCC 29213 in MHB. Cultures were adjusted to a 0.5 McFarland standard, diluted in MHB, and then 100µL was added to each culture tube containing 10mL pre-warmed MHB to give a final inoculum concentration of 5 x 10^5 CFU/mL. A sterility control of 100uL MHB, growth control (no cathelicidin), and vehicle control (DMSO) were also included. Furthermore, 10uL was immediately removed from the growth control tube, diluted 1/1000 in saline and 100µL plated onto MHA in duplicate to confirm inoculum density. To establish colony counts from 0 hours of cathelicidin treatment, 200µL was removed from each culture tube and serially diluted ten-fold in saline from 10^0 to […] in a total volume of 200µL. Then, 10µL of each dilution was spotted onto MHA in duplicate, which were incubated at 35°C for 24 hours.
All culture tubes were then incubated at 35°C static. At 1, 2, 4, 6, 8, 10, 12, and 24 hours post-cathelicidin treatment, 200µL was removed from each culture tube for dilution and plated on MHA as described above. […] Counts of duplicates were averaged, and the log10 CFU/mL graphed against time. This was used as input for one-way ANOVA (p < 0.05) followed by Dunnett’s post hoc test.

[12] = tested on: six bacteria (S. aureus, E. coli, P. aeruginosa; ATCC and clinical isolate); type: cell-based; details: synthesized mature peptide; antimicrobial screening Phase I; Y/N summary over bacteria tested, broth microdilution
Method in brief: as §2

[13] = tested on: three fungi (Candida krusei, Candida parapsilosis, Candida albicans); test: Antifungal screening, summary over the panel of fungi (broth microdilution); type: cell-based; details: synthesized mature peptide; antimicrobial screening Phase I; Y/N summary over fungi tested, broth microdilution
Method: Antimicrobial testing of 78 cathelicidin MPs was performed in two phases as outlined in Figure 1 . In phase I, 40 peptides (27 extant and 13 ancestral) were selected for testing based on rank (outlined above) and similarity to published marsupial cathelicidins with known antimicrobial activity ([33], [41]–[43]). These peptides were tested against nine bacteria (Staphylococcus aureus ATCC 29213 and clinical isolate, Escherichia coli ATCC 25922 and clinical isolate, Pseudomonas aeruginosa ATCC 27853 and clinical isolate, Streptococcus agalactiae ATCC 12386 and clinical isolate, Streptococcus pneumoniae ATCC 49619) and three fungi (Candida krusei ATCC 6258, Candida parapsilosis ATCC 22019, and Candida albicans clinical isolate). Details regarding these strains are available in Supplementary Table 4 . The antimicrobial activity of cathelicidins was determined as the minimum inhibitory concentration (MIC), which was the lowest concentration of cathelicidin that prevented visible bacterial or fungal growth, relative to the negative control. […] Minimum bactericidal concentration (MBC) and/or minimum fungicidal concentration (MFC) was conducted to determine microbicidal versus static action. Activity against S. aureus ATCC, E. coli ATCC, and Pseudomonas aeruginosa ATCC 27853 was examined in the presence of divalent cations to determine the impact of inhibitors.
Antimicrobial activity was determined using a broth microdilution susceptibility assay in 96 well polypropylene plates according to Clinical Laboratory Standards Institute guidelines M07-A and M26A as described previously ([33], [42], [43]). The bacterial and fungal isolates from humans and animals used in this study are outlined in Supplementary Table 4 . Only yeasts were included in the panel of fungi as they have been used in the susceptibility testing of eutherian ([3], [81]–[83]) and other marsupial cathelicidins previously ([33], [42], [43]). Cathelicidin mature peptides were solubilized in DMSO and serially diluted in duplicate from 128-0.25μg/mL in a final volume of 100µL. For bacteria, cathelicidins were diluted in Mueller Hinton Broth (MHB) with or without 10% lysed horse blood, and with (MH II B) or without (MHB) calcium and magnesium cations. For fungi, cathelicidins were diluted in Roswell Park Memorial Institute medium (RPMI)-1640 MOPS. Ampicillin or tetracycline were included as a positive control for Gram-positive and -negative bacteria respectively, while amphotericin B was used for fungi. A media-only negative control and growth control (no cathelicidin) were also included on each plate. Bacteria were sub-cultured on Muller Hinton agar (MHA) or sheep blood agar (BA), and fungi on Sabouraud dextrose agar (SAB), 20–24 hours prior to the test. Colonies were suspended in saline, the concentration adjusted to a 0.5 McFarland standard, and then diluted in media to a concentration of 1.0 x 10^6 cells/mL. Then, 100μL was added to each well of the cathelicidin dilution plate, giving a final inoculum density of 5 x 10^5 CFU/mL and cathelicidin concentration of 64-0.125μg/mL. Colony counts were performed on MHA/BA/SAB to confirm inoculum density. All plates were incubated at 35°C for 20–24 hours, depending on the strain.
Colonies were counted and compared to the colony count of the starting inoculum.

[14] = clinical isolate - animal, read-out: MIC S. aureus
[15] = clinical isolate - animal, read-out: MIC in the presence of cations S. aureus
[16] = clinical isolate, MHB without cations, 5 x 10^5 CFU/mL, 35°C 20–24 hours, duplicate
[17] = clinical isolate, superscript value, cation-adjusted Mueller Hinton broth
[18] = clinical isolate, value in brackets, 99.9% reduction in CFU/mL

SMILES	MBC PRSA [1] [µM]	MIC PRSA [1] [µM]	MBC MRSA [2] [µM]	MIC MRSA [2] [µM]	MIC [4] [µM]	MIC [5] [µM]	MBC S. aureus ([6]; clinical isolate - animal) [µM]	MIC [6, 14] [µM]	MIC [6, 15] [µM]	MBC E. coli ([7]; clinical isolate - animal)	MIC in the presence of cations E. coli ([7]; clinical isolate - animal)	MIC [8] [µM]	MIC [9] [µM]	MBC E. coli ATCC ([11]; ATCC 25922)	Number of hours to cause a significant reduction in log CFU/mL of S. aureus ATCC (p < 0.05) (S. aureus ATCC 29213; 0.5x MIC) [hours]	Number of hours to cause a significant reduction in log CFU/mL of S. aureus ATCC (p < 0.05) (S. aureus ATCC 29213; 2x MIC) [hours]	Number of hours to cause a significant reduction in log CFU/mL of S. aureus ATCC (p < 0.05) (S. aureus ATCC 29213; MIC) [hours]	other results
CC[C@H](C)[C@H](NC(=O)[C@H](CCCCN)NC(=O)[C@H](CC(N)=O)NC(=O)[C@H](CC(C)C)NC(=O)CNC(=O)[C@H](CCC(N)=O)NC(=O)CNC(=O)[C@H](CC(C)C)NC(=O)[C@H](CCCCN)NC(=O)[C@H](CCSC)NC(=O)[C@H](Cc1c[nH]c2ccccc12)NC(=O)CNC(=O)[C@H](CCCCN)NC(=O)[C@H](CCCCN)NC(=O)[C@H](CCC(=O)O)NC(=O)[C@H](Cc1c[nH]cn1)NC(=O)[C@H](CCCNC(=N)N)NC(=O)[C@H](CCCCN)NC(=O)[C@@H](NC(=O)[C@@H](N)CCCCN)[C@@H](C)CC)C(=O)N[C@@H](CC(C)C)C(=O)N[C@@H](CCCCN)C(=O)N[C@@H](Cc1c[nH]cn1)C(=O)N[C@@H](Cc1ccccc1)C(=O)N[C@@H](CC(N)=O)C(=O)N[C@H](C(=O)N[C@@H](CC(=O)O)C(=O)N[C@@H](Cc1ccccc1)C(=O)N[C@@H](CS)C(=O)N[C@@H](CC(C)C)C(=O)N[C@@H](CC(N)=O)C(=O)N[C@@H](CS)C(=O)O)[C@@H](C)CC [LalaCath3] (H-KIKRHEKKGWMKLGQGLNKILKHFNIDFCLNC-OH; N-terminus and C-terminus assumed)	2 (≈ 7.68 µg/mL)	1 (≈ 3.84 µg/mL)	4.1 (≈ 15.8 µg/mL)	2 (≈ 7.68 µg/mL)	>16.6	>16.6	4.1	2 (≈ 7.68 µg/mL)	2	16.6 (16.6)^>16.6 µM	16.6 (16.6)^>16.6 µM	>16.6	>16.6	8.3 (8.3)^8.3 µM	4	2	4	MBC S. agalactiae [3]: 8.3 µM (≈ 31.9 µg/mL); MIC S. agalactiae [3]: 8.3 µM (≈ 31.9 µg/mL); MIC E. coli ([7]; clinical isolate - animal): 16.6 (16.6)^>16.6 µM; MBC S. aureus ATCC ([10]; ATCC 29213): 4.1 µM; MIC ([10]; ATCC 29213, read-out: MIC S. aureus ATCC): 2 µM (≈ 7.68 µg/mL); MIC ([10]; ATCC 29213, read-out: MIC in the presence of cations S. aureus ATCC): 2 µM; MIC E. coli ATCC ([11]; ATCC 25922): 8.3 (8.3)^8.3 µM; MIC in the presence of cations E. coli ATCC ([11]; ATCC 25922): 8.3 (8.3)^8.3 µM
CC[C@H](C)[C@H](NC(=O)[C@H](CCCCN)NC(=O)CNC(=O)[C@H](CC(C)C)NC(=O)CNC(=O)[C@H](CCC(N)=O)NC(=O)CNC(=O)[C@H](CC(C)C)NC(=O)[C@@H]1CCCN1C(=O)[C@H](CCCCN)NC(=O)[C@H](CCSC)NC(=O)[C@H](CC(C)C)NC(=O)[C@H](CCCCN)NC(=O)[C@H](CCCCN)NC(=O)[C@H](CCCCN)NC(=O)CNC(=O)CNC(=O)[C@H](CCCNC(=N)N)NC(=O)[C@@H](N)CCCCN)C(=O)N[C@@H](CC(C)C)C(=O)N[C@@H](CCCCN)C(=O)N[C@@H](Cc1c[nH]cn1)C(=O)N[C@@H](Cc1ccccc1)C(=O)N[C@@H](CC(N)=O)C(=O)N[C@H](C(=O)N[C@@H](CC(=O)O)C(=O)N[C@@H](Cc1ccccc1)C(=O)N[C@@H](CS)C(=O)NCC(=O)N[C@@H](CC(N)=O)C(=O)N[C@@H](CS)C(=O)O)[C@@H](C)CC [MAP11] (H-KRGGKKKLMKPLGQGLGKILKHFNIDFCGNC-OH; N-terminus and C-terminus assumed)	4.6 (≈ 15.8 µg/mL)	4.6 (≈ 15.8 µg/mL)	9.3 (≈ 31.9 µg/mL)	9.3 (≈ 31.9 µg/mL)	>18.6	>18.6	9.3	9.3 (≈ 31.9 µg/mL)	4.6	9.3 µM	18.6 µM	>18.6	>18.6	18.6 µM	4	2	4	MIC ([3]; read-out: MIC S. agalactiae): >18.6 µM; MIC S. aureus [6, 16]: 32 µg/mL (≈ 9.33 µM); MIC in the presence of cations S. aureus [6, 17]: 16 µg/mL; MBC S. aureus [6, 18]: 32 µg/mL; MIC ([7]; clinical isolate - animal): 9.3 µM (≈ 31.9 µg/mL); MIC E. coli [7, 16]: 32 µg/mL (≈ 9.33 µM); MIC in the presence of cations E. coli [7, 17]: 64 µg/mL; MBC E. coli [7, 18]: 32 µg/mL; MIC S. aureus ATCC ([10]; ATCC 29213): 16 µg/mL (≈ 4.66 µM); MIC in the presence of cations S. aureus ATCC ([10]; superscript value, cation-adjusted Mueller Hinton broth (calcium and magnesium)): 32 µg/mL; MBC S. aureus ATCC ([10]; value in brackets, 99.9% reduction in CFU/mL relative to starting inoculum): 32 µg/mL; MIC ([11]; ATCC 25922, read-out: MIC E. coli ATCC): 9.3 µM (≈ 31.9 µg/mL); MIC ([11]; ATCC 25922, read-out: MIC in the presence of cations E. coli ATCC): 9.3 µM; MIC E. coli ATCC ([11]; MHB without cations, 5 x 10^5 CFU/mL, 35°C 20–24 hours, duplicate): 32 µg/mL (≈ 9.33 µM); MIC in the presence of cations E. coli ATCC ([11]; superscript value, cation-adjusted Mueller Hinton broth): 32 µg/mL; MBC E. coli ATCC ([11]; value in brackets, 99.9% reduction in CFU/mL): 64 µg/mL; Antibacterial (MIC <64ug/mL) [12]: Y (Antibacterial (MIC <64ug/mL)); Antifungal (MIC <64ug/mL) [13]: N (Antifungal (MIC <64ug/mL))
